From paper PMC10035951, “Selenium-analogs based on natural sources as cancer-associated carbonic anhydrase isoforms IX and XII inhibitors” (Journal of Enzyme Inhibition and Medicinal Chemistry, 2023) come the findings set out here.

Where two headings read alike, the source gives them in different places.

One experiment has as its target T1, hCA IX (Homo sapiens, UniProt Q16790).
T1 construct: made in house
Put plainly: CA catalysed CO2 hydration, stopped-flow inhibition. The class given is biochemical. The following applies: for Ki: recombinant hCA IX, stopped-flow CO2 hydration, 15 min preincubation. The protocol:
(§1) The uncatalyzed rates were determined in the same manner and subtracted from the total observed rates. Stock solutions of inhibitor (0.1 mM) were prepared in distilled − deionized water and dilutions up to 0.01 nM were done thereafter with the assay buffer. Inhibitor and enzyme solutions were preincubated together for 15 min at room temperature before assay to allow for the formation of the E − I complex. The inhibition constants were obtained by nonlinear least-squares methods using PRISM 3 and the Cheng − Prusoff equation, as reported earlier,[39]^,[40] and represent the mean from at least three different determinations. […] All human CA (hCA) isoforms were recombinant ones obtained in-house as reported earlier.[41]^,[42]

The next experiment concerns the target T2, hCA II (Homo sapiens, UniProt P00918).
T2 construct: made in house
Described as above. The class given is biochemical. The protocol: as §1

Another experiment addresses T3, hCA I (Homo sapiens, UniProt P00915).
T3 construct: made in house
The description is as above. The experiment is classed as biochemical. The protocol:
as §1

A further experiment concerns the target T4, hCA XII (Homo sapiens, UniProt O43570).
T4 construct: made in house
Described as above. The class given is biochemical. The protocol:
An Applied Photophysics stopped-flow instrument has been used for assaying the CA catalysed CO2 hydration activity.[38] Phenol red (at a concentration of 0.2 mM) has been used as an indicator, working at the absorbance maximum of 557 nm, with 20 mM Hepes (pH 7.5) as a buffer and 20 mM Na2SO4 (for maintaining constant the ionic strength), following the initial rates of the CA-catalysed CO2 hydration reaction for a period of 10–100 s. The CO2 concentrations ranged from 1.7 to 17 mM for the determination of the kinetic parameters and inhibition constants. […]. The uncatalyzed rates were determined in the same manner and subtracted from the total observed rates. Stock solutions of inhibitor (0.1 mM) were prepared in distilled − deionized water and dilutions up to 0.01 nM were done thereafter with the assay buffer. Inhibitor and enzyme solutions were preincubated together for 15 min at room temperature before assay to allow for the formation of the E − I complex. The inhibition constants were obtained by nonlinear least-squares methods using PRISM 3 and the Cheng − Prusoff equation, as reported earlier,[39]^,[40] and represent the mean from at least three different determinations. The enzyme concentrations were in the range 3–11 nM. All human CA (hCA) isoforms were recombinant ones obtained in-house as reported earlier.[41]^,[42]

For experiment [1], the system named is hCA isoforms I, II, VA, IX, and XII. Put plainly: CA inhibition, summary statements over all tested isoforms. The class given is biochemical, human. The following applies: for isoform selectivity (in words): from the Ki values of Table 1; for Ki: all CA isoforms tested for series b, read-out: Ki range over all CA isoforms. The protocol: An Applied Photophysics stopped-flow instrument has been used for assaying the CA catalysed CO2 hydration activity.[38] Phenol red (at a concentration of 0.2 mM) has been used as an indicator, working at the absorbance maximum of 557 nm, with 20 mM Hepes (pH 7.5) as a buffer and 20 mM Na2SO4 (for maintaining constant the ionic strength), following the initial rates of the CA-catalysed CO2 hydration reaction for a period of 10–100 s. The CO2 concentrations ranged from 1.7 to 17 mM for the determination of the kinetic parameters and inhibition constants. For each inhibitor, at least six traces of the initial 5 − 10% of the reaction have been used for determining the initial velocity. The uncatalyzed rates were determined in the same manner and subtracted from the total observed rates. Stock solutions of inhibitor (0.1 mM) were prepared in distilled − deionized water and dilutions up to 0.01 nM were done thereafter with the assay buffer. Inhibitor and enzyme solutions were preincubated together for 15 min at room temperature before assay to allow for the formation of the E − I complex. The inhibition constants were obtained by nonlinear least-squares methods using PRISM 3 and the Cheng − Prusoff equation, as reported earlier,[39]^,[40] and represent the mean from at least three different determinations. The enzyme concentrations were in the range 3–11 nM. All human CA (hCA) isoforms were recombinant ones obtained in-house as reported earlier.[41]^,[42]

[2] abbreviates: recombinant hCA II, stopped-flow CO2 hydration, 15 min preincubation, read-out: Ki hCA II.
Setting [3] is: recombinant hCA I, stopped-flow CO2 hydration, 15 min preincubation, read-out: Ki hCA I.
[4] abbreviates: recombinant hCA XII, stopped-flow CO2 hydration, 15 min preincubation, read-out: Ki hCA XII.

T4 sequence (O43570 25-354): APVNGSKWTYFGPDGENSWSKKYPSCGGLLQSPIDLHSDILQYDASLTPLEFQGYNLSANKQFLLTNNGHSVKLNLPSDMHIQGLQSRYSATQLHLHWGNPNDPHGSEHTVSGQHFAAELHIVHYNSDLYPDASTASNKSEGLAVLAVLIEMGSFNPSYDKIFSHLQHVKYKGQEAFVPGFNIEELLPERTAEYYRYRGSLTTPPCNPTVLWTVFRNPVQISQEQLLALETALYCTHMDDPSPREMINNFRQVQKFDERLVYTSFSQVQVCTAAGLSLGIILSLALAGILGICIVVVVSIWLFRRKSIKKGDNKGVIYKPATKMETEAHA
T3 sequence (P00915 whole entry): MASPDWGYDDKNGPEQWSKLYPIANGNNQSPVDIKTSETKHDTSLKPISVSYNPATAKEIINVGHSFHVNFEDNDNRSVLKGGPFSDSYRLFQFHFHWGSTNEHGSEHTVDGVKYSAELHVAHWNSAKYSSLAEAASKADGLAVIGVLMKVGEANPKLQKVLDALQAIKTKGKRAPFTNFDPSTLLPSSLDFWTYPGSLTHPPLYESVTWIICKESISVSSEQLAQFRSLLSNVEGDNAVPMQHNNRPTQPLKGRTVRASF

In the case of `C=CC[Se]C(=O)C12CC3CC(CC(C3)C1)C2` [Compound 1a], the inhibitory constant (Ki) on hCA IX, on hCA II (setting [2]) and on hCA I (setting [3]) was above 100 µM in each case.

On to `C#CC[Se]C(=O)C12CC3CC(CC(C3)C1)C2` [Compound 1b], for which the Ki is 28.4 µM at hCA XII (setting [4]), 9.1 µM at hCA IX, above 100 µM at hCA II (setting [2]) and above 100 µM at hCA I (setting [3]). Moreover, the “isoform selectivity (in words)” value in experiment [1] is “selectivity for tumour-associated isoforms IX and XII”.

Turning to `C=CC[Se]C(=O)c1ccccc1` [Compound 2a], the inhibition constant Ki on hCA IX, on hCA II (setting [2]) and at hCA I (setting [3]) was above 100 µM in each case.

On to `C#CC[Se]C(=O)c1ccccc1` [Compound 2b], for which the Ki was 55.7 µM on hCA XII (setting [4]), 7.8 µM at hCA IX, above 100 µM at hCA II (setting [2]) and 80.5 µM at hCA I (setting [3]). The “times higher inhibition of CA IX than of isoform I” value at hCA IX (CA IX versus CA I) was around 13 times. Moreover, the “times higher inhibition of CA IX than of isoform II” value on hCA IX (CA IX versus CA II) is around 10 times.

As to `C=CC[Se]C(=O)c1ccccc1Cl` [Compound 3a], the Ki at hCA IX, at hCA II (setting [2]) and on hCA I (setting [3]) was above 100 µM in each case.

Take `C#CC[Se]C(=O)c1ccccc1Cl` [Compound 3b]: the inhibitory constant (Ki) on hCA XII was 28.8 µM; at hCA IX, 41.6 µM; at hCA II it was above 100 µM; at hCA I, 42.1 µM.

Consider `C#CC[Se]C(=O)c1ccc2c(c1)OCO2` [Compound 4b], for which the Ki was above 100 µM at hCA XII (setting [4]), 67.7 µM on hCA IX, 53.5 µM on hCA II (setting [2]) and 31.3 µM at hCA I (setting [3]).

In the case of `C=CC[Se]C(=O)C=Cc1ccccc1` [Compound 5a], the Ki at hCA IX, at hCA II (setting [2]) and on hCA I (setting [3]) was above 100 µM each time.

On to `C#CC[Se]C(=O)C=Cc1ccccc1` [Compound 5b], for which the Ki on hCA XII (setting [4]) is above 100 µM; on hCA IX, 79.3 µM; on hCA II (setting [2]), 42.7 µM; on hCA I (setting [3]), 24.1 µM.

As to `C#CC[Se]C(=O)CCc1ccccc1` [Compound 6b], the Ki at hCA XII is 7 µM; on hCA IX, 25 µM; on hCA II it was 9.5 µM; on hCA I, 3.1 µM; in experiment [1] it was 2.2 to 48.5 µM. Moreover, the “times more potent than analog without the spacer (2b)” value on hCA I (CA I, Ki ratio versus 2b) is 26 times. In addition, the “times more potent than analog with the double-bond spacer (5b)” value on hCA I (CA I, Ki ratio versus 5b) is 7.7 times.

Turning to `C=CC[Se]C(=O)c1cccnc1` [Compound 7a], the inhibitory constant (Ki) at hCA IX, at hCA II (setting [2]) and on hCA I (setting [3]) was above 100 µM throughout.

Turning to `C#CC[Se]C(=O)c1cccnc1` [Compound 7b], the inhibition constant (Ki) came out at 85.1 µM at hCA XII (setting [4]), 38.2 µM on hCA IX, 66.3 µM at hCA II (setting [2]) and 30.2 µM at hCA I (setting [3]).

Regarding `C=CC[Se]C(=O)c1cccnc1Cl` [Compound 8a], the Ki at hCA IX was 89.4 µM; on hCA II (setting [2]), above 100 µM; on hCA I (setting [3]), above 100 µM.

On to `C#CC[Se]C(=O)c1cccnc1Cl` [Compound 8b], for which the inhibition constant Ki is 9.6 µM on hCA XII (setting [4]); 48.5 µM at hCA IX; 8.6 µM at hCA II (setting [2]); 2.2 µM on hCA I (setting [3]); 2.2 to 48.5 µM in experiment [1]. The “increase of inhibitory activity compared to unsubstituted pyridine” value at hCA I (CA I, Ki ratio versus 7b) came to 13.7 times.

In the case of `C=CC[Se]C(=O)c1cccs1` [Compound 9a], the inhibition constant (Ki) on hCA IX, at hCA II (setting [2]) and at hCA I (setting [3]) was above 100 µM in each case.

With `C#CC[Se]C(=O)c1cccs1` [Compound 9b], the inhibition constant Ki at hCA XII (setting [4]) is 97 µM; at hCA IX it was above 100 µM; on hCA II (setting [2]), 46.6 µM; at hCA I (setting [3]) it was 9.2 µM.

Regarding `C=CC[Se]C(=O)c1sccc1Cl` [Compound 10a], the inhibitory constant (Ki) on hCA IX, at hCA II (setting [2]) and at hCA I (setting [3]) was above 100 µM in each case.

As to `C#CC[Se]C(=O)c1sccc1Cl` [Compound 10b], the inhibition constant Ki on hCA XII (setting [4]) is 98.5 µM; on hCA IX, above 100 µM; on hCA II (setting [2]), 88.5 µM; on hCA I (setting [3]) it was above 100 µM.

With `C=CC[Se]C(=O)c1ccco1` [Compound 11a], the Ki on hCA IX, at hCA II (setting [2]) and on hCA I (setting [3]) was above 100 µM each time.

Regarding `C#CC[Se]C(=O)c1ccco1` [Compound 11b], the Ki worked out at 59.6 µM at hCA XII (setting [4]), 7.1 µM at hCA IX, 49.9 µM at hCA II (setting [2]) and 8.5 µM on hCA I (setting [3]).

Turning to `C=CC[Se]C(=O)c1ccno1` [Compound 12a], the inhibition constant Ki on hCA IX, at hCA II (setting [2]) and at hCA I (setting [3]) was above 100 µM each time.

For `C#CC[Se]C(=O)c1ccno1` [Compound 12b], the inhibition constant Ki is 66.6 µM at hCA XII (setting [4]), 22.4 µM on hCA IX, above 100 µM at hCA II (setting [2]) and 58.4 µM on hCA I (setting [3]). The “decrease of inhibitory capacity on substitution of furan ring (11b) by isoxazole” value at hCA I (CA I, Ki ratio versus 11b) was around 7 fold.

Take `C=CC[Se]C(=O)c1ccccc1O` [Compound 13a]: the Ki at hCA IX, at hCA II (setting [2]) and on hCA I (setting [3]) was above 100 µM throughout.

For the compound `C#CC[Se]C(=O)c1ccccc1O` [Compound 13b], the Ki is above 100 µM at hCA XII (setting [4]), 54.8 µM on hCA IX, above 100 µM at hCA II (setting [2]) and 23.3 µM on hCA I (setting [3]). For the same compound, the “isoform selectivity (in words)” value in experiment [1] is “selectivity for cytosolic CA I isoform and tumour-associated CA IX”.

Consider `C=CC[Se]C(=O)c1ccccc1OC(C)=O` [Compound 14a], for which the Ki on hCA IX, at hCA II (setting [2]) and at hCA I (setting [3]) was above 100 µM each time.

For the compound `C#CC[Se]C(=O)c1ccccc1OC(C)=O` [Compound 14b], the inhibitory constant (Ki) was 89.7 µM on hCA XII (setting [4]), above 100 µM at hCA IX, 55.3 µM at hCA II (setting [2]) and 5 µM at hCA I (setting [3]).

With `C#CC[Se]C(=O)C(C)c1ccc(CC(C)C)cc1` (centres unmarked) [Compound 15b], the Ki at hCA XII (setting [4]) was above 100 µM; on hCA IX, 47.7 µM; at hCA II (setting [2]), above 100 µM; at hCA I (setting [3]), 77.1 µM. Besides, in experiment [1], the “isoform selectivity (in words)” value is “selectivity for cytosolic CA I isoform and tumour-associated CA IX”.

Consider `C=CC[Se]C(=O)[C@@H](C)c1ccc2cc(OC)ccc2c1` [Compound 16a], for which the Ki at hCA IX, at hCA II (setting [2]) and at hCA I (setting [3]) was above 100 µM throughout.

Regarding `C#CC[Se]C(=O)[C@@H](C)c1ccc2cc(OC)ccc2c1` [Compound 16b], the inhibition constant (Ki) at hCA XII (setting [4]) was above 100 µM; at hCA IX it was 24.7 µM; at hCA II (setting [2]), above 100 µM; at hCA I (setting [3]), 91.5 µM. The “isoform selectivity (in words)” value in experiment [1] is “selectivity for cytosolic CA I isoform and tumour-associated CA IX”.

Regarding `C#CC[Se]C(=O)Cc1c(C)n(C(=O)c2ccc(Cl)cc2)c2ccc(OC)cc12` [Compound 17b], the Ki is above 100 µM at hCA XII (setting [4]), 58.5 µM on hCA IX, above 100 µM on hCA II (setting [2]) and above 100 µM at hCA I (setting [3]). In addition, the “isoform selectivity (in words)” value in experiment [1] is “selectivity for tumour-associated isoform IX”.

`C#CC[Se]C(=O)c1ccccc1Nc1cccc(C)c1C` [Compound 18b]: the Ki at hCA XII (setting [4]) was 46.3 µM; at hCA IX, 9.6 µM; on hCA II (setting [2]) it was 4.5 µM; at hCA I (setting [3]), above 100 µM. Besides, on hCA II (CA II versus CA I), the “fold greater inhibition potency for CA II than for CA I” value is on record as 22 fold.

One may read the Ki as the equilibrium dissociation constant of an inhibitor or competing ligand from its target.
